The compounds below were run on GM01896 cells (MPS II dermal fibroblasts) (assay: Assay 1: MPS cellular assay, MPS II (heparan sulfate disaccharide biomarkers by LC-MS)). Details: Assay 1 for MPS II, heparan sulfate disaccharide biomarkers (I2a4, I2a6, I2S0 and/or I2S6), read-out: IC50 Range.
Format: cell-based, human
Summary of the method: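 MPS II patient dermal fibroblasts (GM01896) treated with compound at ≤30 μM for 4 to 21 days. Heparan sulfate GAGs isolated by anion exchange, digested with heparinases I-III, aniline-tagged against [13C6]aniline standards and quantified by LC-MS; IC50 from curve fitting. Viability monitored by alamar blue or ATP.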
Compound CN(C)CCn1cnc2ccc(-c3cc(Nc4ccc(Cl)cc4)nc(N4CCOCC4)n3)cc21 [[2-(6-{6-[(4-chlorophenyl)amino]-2-morpholin-4-ylpyrimidin-4-yl}benzimidazolyl)ethyl]dimethylamine] has an IC50 of 500 to 1000 nM. Work on Cc1nc2ccc(-c3cc(Nc4ccc(Cl)cc4)nc(N4CCOCC4)n3)cc2n1CCN(C)C [[2-(6-{6-[(4-chlorophenyl)amino]-2-morpholin-4-ylpyrimidin-4-yl}-2-methylbenzimidazolyl)ethyl]dimethylamine] yielded an IC50 of 1000 to 5000 nM. Compound Cc1nn(C)c2cc(-c3cc(Nc4ccc(-n5cccn5)cc4)nc(N4CCOCC4)n3)ccc12 [[6-(1,3-dimethyl(1H-indazol-6-yl))-2-morpholin-4-ylpyrimidin-4-yl](4-pyrazolylphenyl)amine] has an IC50 of less than 500 nM. Cc1nn(CCN(C)C)c2cc(-c3cc(Nc4ccc(Cl)cc4)nc(N4CCOCC4)n3)ccc12 [[2-(6-{6-[(4-chlorophenyl)amino]-2-morpholin-4-ylpyrimidin-4-yl}-3-methyl(1H-indazoly))ethyl]dimethylamine] gave an IC50 of 1000 to 5000 nM.

Same assay, conditions: Homo sapiens, Fibroblast, Assay 1 for MPS II, heparan sulfate disaccharide biomarkers (I2a4, I2a6, I2S0 and/or I2S6), read-out: IC50 Range
CNC(=O)c1ccc(Nc2cc(-c3ccc4cn[nH]c4c3)nc(N3CCOCC3)n2)cn1 [{5-[(6-(1H-indazol-6-yl)-2-morpholin-4-ylpyrimidin-4-yl)amino](2-pyridyl)}-N-methylcarboxamide] gave an IC50 of 500 to 1000 nM. With Cn1ccnc1-c1ccc(Nc2cc(-c3ccc4cnn(C)c4c3)nc(N3CCOCC3)n2)cc1 [[6-(1-methyl(1H-indazol-6-yl))-2-morpholin-4-ylpyrimidin-4-yl][4-(1-methylimidazol-2-yl)phenyl]amine] the IC50 was 500 to 1000 nM. Cn1ncc2ncc(-c3cc(Nc4ccc(Cl)cc4)nc(N4CCOCC4)n3)cc21 [(4-chlorophenyl)[6-(1-methylpyrazolo[4,5-b]pyridin-6-yl)-2-morpholin-4-ylpyrimidin-4-yl]amine] showed an IC50 of 500 to 1000 nM. Cc1c2ccc(-c3cc(Nc4ccc(Cl)cc4)nc(N4CCOCC4)n3)cc2nn1CCN(C)C [[2-(6-{6-[(4-chlorophenyl)amino]-2-morpholin-4-ylpyrimidin-4-yl}-3-methyl(2H-indazol-2-yl))ethyl]dimethylamine] gave an IC50 of 1000 to 5000 nM. Cn1ncc2ccc(-c3cc(Nc4ccc(N5CN=NC5=O)cc4)nc(N4CCOCC4)n3)cc21 [4-(4-{[6-(1-methyl(1H-indazol-6-yl))-2-morpholin-4-ylpyrimidin-4-yl]amino}phenyl)-1,2,4-triazolin-5-one] was tested, and the IC50 was 1000 to 5000 nM. In the case of Cn1nc(CN2CCOCC2)c2ccc(-c3cc(Nc4ccc(Cl)cc4)nc(N4CCOCC4)n3)cc21 [(4-chlorophenyl){6-[1-methyl-3-(morpholin-4-ylmethyl)(1H-indazol-6-yl)]-2-morpholin-4-ylpyrimidin-4-yl}amine], the IC50 is reported as 1000 to 5000 nM. For Clc1ccc(Nc2cc(-c3ccc4c(cnn4CCCN4CCOCC4)c3)nc(N3CCOCC3)n2)cc1 [(4-chlorophenyl){2-morpholin-4-yl-6-[1-(3-morpholin-4-ylpropyl)(1H-indazol-5-yl)]pyrimidin-4-yl}amine], the IC50 was 1000 to 5000 nM. Cc1nnc(-c2ccc(Nc3cc(-c4ccc5cnn(CCN6CCOCC6)c5c4)nc(N4CCOCC4)n3)cc2)[nH]1 [[4-(5-methyl(4H-1,2,4-triazol-3-yl))phenyl]{2-morpholin-4-yl-6-[1-(2-morpholin-4-ylethyl)(1H-indazol-6-yl)]pyrimidin-4-yl}amine] showed an IC50 of less than 500 nM. Compound Clc1ccc(Nc2cc(-c3ccc4ncn(C5COC5)c4c3)nc(N3CCOCC3)n2)cc1 [(4-chlorophenyl)[2-morpholin-4-yl-6-(1-oxetan-3-ylbenzimidazol-6-yl)pyrimidin-4-yl]amine] has an IC50 of less than 500 nM. Work on CNC(=O)c1ccc(Nc2cc(-c3ccc4c(c3)ncn4CCCN3CCOCC3)nc(N3CCOCC3)n2)cc1 [N-methyl[4-({2-morpholin-4-yl-6-[1-(3-morpholin-4-ylpropyl)benzimidazol-5-yl]pyrimidin-4-yl}amino)phenyl]carboxamide] yielded an IC50 of 1000 to 5000 nM. With Cn1ncc2ccc(-c3cc(Nc4ccc(S(N)(=O)=O)cc4)nc(N4CCOCC4)n3)cc21 [4-{[6-(1-methyl(1H-indazol-6-yl))-2-morpholin-4-ylpyrimidin-4-yl]amino}benzenesulfonamide] the IC50 was 1000 to 5000 nM. For Cn1ncc2ccc(-c3cc(Nc4ccc([S+](C)[O-])cc4)nc(N4CCOCC4)n3)cc21 (stereo not drawn) [1-{[6-(1-methyl(1H-indazol-6-yl))-2-morpholin-4-ylpyrimidin-4-yl]amino}-4-(methylsulfinyl)benzene], the IC50 was 1000 to 5000 nM. CCc1nn(C)c2cc(-c3cc(Nc4ccc(Cl)cc4)nc(N4CCOCC4)n3)cnc12 [(4-chlorophenyl)[6-(3-ethyl-1-methylpyrazolo[4,5-b]pyridin-6-yl)-2-morpholin-4-ylpyrimidin-4-yl]amine] was tested, and the IC50 was 1000 to 5000 nM. For Clc1ccc(Nc2cc(-c3ccc4ncn(CC5CC5)c4c3)nc(N3CCOCC3)n2)cc1 [(4-chlorophenyl){6-[1-(cyclopropylmethyl)benzimidazol-6-yl]-2-morpholin-4-ylpyrimidin-4-yl}amine], the IC50 was 500 to 1000 nM. Work on Cc1nn(C)c2cc(-c3cc(Nc4ccc(-c5nnc[nH]5)cc4)nc(N4CCOCC4)n3)cnc12 [(4-(4H-1,2,4-triazol-3-yl)phenyl)[6-(1,3-dimethylpyrazolo[4,5-b]pyridin-6-yl)-2-morpholin-4-ylpyrimidin-4-yl]amine] yielded an IC50 of less than 500 nM. Compound Clc1ccc(Nc2cc(-c3ccc4ncn(CCN5CCCC5)c4c3)nc(N3CCOCC3)n2)cc1 [(4-chlorophenyl){2-morpholin-4-yl-6-[1-(2-pyrrolidinylethyl)benzimidazol-6-yl]pyrimidin-4-yl}amine] has an IC50 of 500 to 1000 nM. For CNC(=O)c1ccc(Nc2cc(-c3ccc4nc(C)n(C5CCC5)c4c3)nc(N3CCOCC3)n2)cc1 [(4-{[6-(1-cyclobutyl-2-methylbenzimidazol-6-yl)-2-morpholin-4-ylpyrimidin-4-yl]amino}phenyl)-N-methylcarboxamide], the IC50 was less than 500 nM. Work on Clc1ccc(Nc2cc(-c3ccc4ncn(CCCN5CCOCC5)c4c3)nc(N3CCOCC3)n2)cc1 [(4-chlorophenyl){2-morpholin-4-yl-6-[1-(3-morpholin-4-ylpropyl)benzimidazol-6-yl]pyrimidin-4-yl}amine] yielded an IC50 of 500 to 1000 nM. Cn1ncc2ccc(-c3cc(Nc4ccc(-c5ncc[nH]5)cc4)nc(N4CCOCC4)n3)cc21 [(4-imidazol-2-ylphenyl)[6-(1-methyl(1H-indazol-6-yl))-2-morpholin-4-ylpyrimidin-4-yl]amine] was tested, and the IC50 was less than 500 nM. In the case of Cc1nn(C)c2cc(-c3cc(Nc4ccc(-c5ncco5)cc4)nc(N4CCOCC4)n3)ccc12 [[6-(1,3-dimethyl(1H-indazol-6-yl))-2-morpholin-4-ylpyrimidin-4-yl](4-(1,3-oxazol-2-yl)phenyl)amine], the IC50 is reported as 500 to 1000 nM. In the case of Cc1nnc(-c2ccc(Nc3cc(-c4ccc5c(C)nn(CCN6CCOCC6)c5c4)nc(N4CCOCC4)n3)cc2)[nH]1 [[4-(5-methyl(4H-1,2,4-triazol-3-yl))phenyl]{6-[3-methyl-1-(2-morpholin-4-ylethyl)(1H-indazol-6-yl)]-2-morpholin-4-ylpyrimidin-4-yl}amine], the IC50 is reported as less than 500 nM. Compound Cn1ccc2ccc(Nc3cc(-c4ccc5nc(CCN6CCOCC6)n(CC6CC6)c5c4)nc(N4CCOCC4)n3)cc21 [{6-[1-(cyclopropylmethyl)-2-(2-morpholin-4-ylethyl)benzimidazol-6-yl]-2-morpholin-4-ylpyrimidin-4-yl}(1-methylindol-6-yl)amine] has an IC50 of less than 500 nM. CN(C)CCCc1nn(C)c2cc(-c3cc(Nc4ccc5ccn(C)c5c4)nc(N4CCOCC4)n3)ccc12 [dimethyl[3-(1-methyl-6-{6-[(1-methylindol-6-yl)amino]-2-morpholin-4-ylpyrimidin-4-yl} (1H-indazol-3-yl))propyl]amine] was tested, and the IC50 was less than 500 nM. Compound Cc1nn(C)c2cc(-c3cc(Nc4ccc5[nH]ncc5c4)nc(N4CCOCC4)n3)ccc12 [1H-indazol-5-yl[6-(1,3-dimethyl(1H-indazol-6-yl))-2-morpholin-4-ylpyrimidin-4-yl]amine] has an IC50 of 1000 to 5000 nM. For CNC(=O)c1ccc(Nc2cc(-c3ccc4nn(CC5CC5)cc4c3)nc(N3CCOCC3)n2)cn1 [[5-({6-[2-(cyclopropylmethyl)(2H-indazol-5-yl)]-2-morpholin-4-ylpyrimidin-4-yl}amino)(2-pyridyl)]-N-methylcarboxamide], the IC50 was 1000 to 5000 nM. For Cn1nc(CCCN2CCCC2)c2ccc(-c3cc(Nc4ccc(Cl)cc4)nc(N4CCOCC4)n3)cc21 [(4-chlorophenyl){6-[1-methyl-3-(3-pyrrolidinylpropyl)(1H-indazol-6-yl)]-2-morpholin-4-ylpyrimidin-4-yl}amine], the IC50 was 500 to 1000 nM. Clc1ccc(Nc2cc(-c3ccc4cnn(CCN5CCCC5)c4c3)nc(N3CCOCC3)n2)cc1 [(4-chlorophenyl){2-morpholin-4-yl-6-[1-(2-pyrrolidinylethyl)(1H-indazol-6-yl)]pyrimidin-4-yl}amine] showed an IC50 of 1000 to 5000 nM. Compound Clc1ccc(Nc2cc(-c3ccc4c(c3)ncn4C3CC3)nc(N3CCOCC3)n2)cc1 [(4-chlorophenyl)[6-(1-cyclopropylbenzimidazol-5-yl)-2-morpholin-4-ylpyrimidin-4-yl]amine] has an IC50 of 1000 to 5000 nM. In the case of Cn1ncc2cc(Nc3cc(-c4ccc5cnn(C)c5c4)nc(N4CCOCC4)n3)ccc21 [(1-methyl(1H-indazol-5-yl))[6-(1-methyl(1H-indazol-6-yl))-2-morpholin-4-ylpyrimidin-4-yl]amine], the IC50 is reported as 1000 to 5000 nM. For Cn1c(N2CCCC2)nc2ccc(-c3cc(Nc4ccc(Cl)cc4)nc(N4CCOCC4)n3)cc21 [(4-chlorophenyl)[6-(1-methyl-2-pyrrolidinylbenzimidazol-6-yl)-2-morpholin-4-ylpyrimidin-4-yl]amine], the IC50 was 1000 to 5000 nM. Cn1ncc2ccc(-c3cc(Nc4ccc(-c5ccn[nH]5)cc4)nc(N4CCOCC4)n3)cc21 [[6-(1-methyl(1H-indazol-6-yl))-2-morpholin-4-ylpyrimidin-4-yl](4-pyrazol-5-ylphenyl)amine] showed an IC50 of less than 500 nM. In the case of COc1cc(Nc2cc(-c3ccc4c(c3)ncn4C)nc(N3CCOCC3)n2)ccn1 [(2-methoxy(4-pyridyl))[6-(1-methylbenzimidazol-5-yl)-2-morpholin-4-ylpyrimidin-4-yl]amine], the IC50 is reported as 1000 to 5000 nM.

— patent US20190151312A1, “HEPARAN SULFATE BIOSYNTHESIS INHIBITORS FOR THE TREATMENT OF DISEASES” (BioMarin Pharmaceutical Inc., priority 2014, published 2019)
